The values below come from patent USRE39114E1, “Expression of sucrose phosphorylase in plants” (Monsanto Technology LLC, priority 1995, dated 2006).

Data set [1] concerns OC[C@H]1O[C@@](CO)(O[C@H]2O[C@H](CO)[C@@H](O)[C@H](O)[C@H]2O)[C@@H](O)[C@@H]1O. As to the kind of experiment: purified protein, by the assay type. Conditions: other: 25° C., pH 7.0, S. mutans SP.
Data set [2] deals with T1, Streptococcus mutans sucrose phosphorylase (GtfA, S. mutans SP), wild type, gene gtfA SEQ ID NO:5 (Streptococcus mutans serotype c, UniProt P10249). The note with it: ratio to L. mesenteroides enzyme.
Data set [3] has as its system sucrose phosphorylase (microbial). Conditions: general statement, no method given; cited from earlier work.
Data set [4] deals with T1, Streptococcus mutans sucrose phosphorylase (GtfA, S. mutans SP), wild type, gene gtfA SEQ ID NO:5. Further details: fragment containing the gtfA gene coding for the Streptococcus mutans sucrose phosphorylase, was cloned into the expression vector pET15b; made in house; host or cells: E. coli BL21 (DE3). Conditions: compared with endogenous maize endosperm enzymes; in words; cited from earlier work.

Data set [5] deals with T2, Leuconostoc mesenteroides sucrose phosphorylase (Spl, L. mesenteroides SP), wild type, gene spl SEQ ID NO:6 (Leuconostoc mesenteroides, UniProt Q59495).
T2 construct: fragment containing the spl gene, encoding the Leuconostoc mesenteroides sucrose phosphorylase enzyme; made in house; host or cells: E. coli BL21 (DE3)
T2 sequence (Q59495 1-490): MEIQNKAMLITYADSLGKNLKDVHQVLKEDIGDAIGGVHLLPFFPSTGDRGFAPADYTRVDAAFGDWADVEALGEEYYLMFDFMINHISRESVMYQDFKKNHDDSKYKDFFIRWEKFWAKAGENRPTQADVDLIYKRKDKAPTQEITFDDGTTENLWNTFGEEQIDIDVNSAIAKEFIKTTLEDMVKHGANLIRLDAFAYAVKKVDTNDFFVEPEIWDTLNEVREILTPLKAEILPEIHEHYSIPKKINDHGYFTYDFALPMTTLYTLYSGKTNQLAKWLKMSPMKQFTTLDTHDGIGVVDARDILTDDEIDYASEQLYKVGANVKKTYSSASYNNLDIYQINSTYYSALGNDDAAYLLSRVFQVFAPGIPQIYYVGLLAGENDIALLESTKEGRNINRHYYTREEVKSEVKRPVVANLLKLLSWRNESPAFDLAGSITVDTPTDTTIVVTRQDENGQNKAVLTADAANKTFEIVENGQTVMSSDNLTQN
As to the kind of experiment: Kinetic analysis of sucrose phosphorylase Spl (continuous coupled spectrophotometric assay). The note with it: 25° C., pH 7.0, read-out: Km(Pi). The format is biochemical.

For data set [6], the target named is Leuconostoc mesenteroides sucrose phosphorylase (Spl), gene spl SEQ ID NO:6 (Leuconostoc mesenteroides, UniProt Q59495). The note with it: 50 mM Pi, 100 mM sucrose, 35° C., pH 7.0. From the text: (§1) To further characterize the sucrose phosphorylases from S. mutans and L. mesenteroides, plasmid constructs containing the spl or the gtfA genes were made for protoplast transformation. A 1461 bp NcoI/BamHI fragment, containing the gtfA gene was isolated by restriction digestion, gel purified, and ligated to a 4646 bp BamHI/NcoI vector fragment containing the enhanced 35S promoter (e35S; Kay et al., 1987), the HSP70 intron (U.S. Pat. No. 5,593,874), the Nopaline synthase 3′ region (Fraley et al., 1983), and a pUC vector derived backbone. A vector was thus created, containing the expression cassette [p-e35S/HSP70/gtfA/NOS3′]. After ligation, the plasmid constructs were transformed into competent DH5α cells, and the transformed cells were plated out on Ampicillin-containing medium. From the colonies that were formed, positive clones were identified by restriction digest. In a similar experiment a 1491bp NcoI/BamHI fragment, containing the spl gene, was isolated by restriction digestion, gel purified, and ligated to the same 4646bp BamHI/NcoI vector fragment (described above). After ligation, transformation of competent cells, and identification of positive clones, the resulting plasmid constructs were used for corn leaf protoplast transformation. Corn leaf protoplast transformation was performed essentially as described by Sheen J., 1991, with some modifications to the protocol.

Data set [7] deals with Streptococcus mutans sucrose phosphorylase (GtfA), gene gtfA SEQ ID NO:5 (Streptococcus mutans serotype c, UniProt P10249). The note with it: 50 mM Pi, 100 mM sucrose, 35° C., pH 7.0.
Text: as §1

Substrate in data set [8]: OC[C@H]1O[C@@](CO)(O[C@H]2O[C@H](CO)[C@@H](O)[C@H](O)[C@H]2O)[C@@H](O)[C@@H]1O
As to the kind of experiment: Kinetic analysis of sucrose phosphorylase Spl (continuous coupled spectrophotometric assay). The format is biochemical, Leuconostoc mesenteroides. The note with it: other: 25° C., pH 7.0, L. mesenteroides SP.

T1 sequence (P10249 whole entry, looked up, change not shown): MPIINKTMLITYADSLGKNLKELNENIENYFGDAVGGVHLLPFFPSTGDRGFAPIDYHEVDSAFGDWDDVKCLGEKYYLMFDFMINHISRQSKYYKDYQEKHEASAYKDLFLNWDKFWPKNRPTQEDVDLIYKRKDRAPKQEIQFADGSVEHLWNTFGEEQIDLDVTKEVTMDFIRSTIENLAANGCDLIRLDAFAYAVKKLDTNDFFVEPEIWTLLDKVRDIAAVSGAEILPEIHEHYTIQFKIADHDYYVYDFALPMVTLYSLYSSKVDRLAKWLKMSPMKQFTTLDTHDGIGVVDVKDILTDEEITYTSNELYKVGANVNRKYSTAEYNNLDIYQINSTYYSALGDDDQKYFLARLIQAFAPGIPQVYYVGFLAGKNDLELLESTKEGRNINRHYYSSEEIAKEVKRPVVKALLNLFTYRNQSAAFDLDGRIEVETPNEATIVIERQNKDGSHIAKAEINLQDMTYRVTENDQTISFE
Chain of Streptococcus mutans sucrose phosphorylase (GtfA), gene gtfA SEQ ID NO:5 (P10249 whole entry, looked up, change not shown): as above

“Streptococcus mutans sucrose phosphorylase (GtfA, S. mutans SP), wild type, gene gtfA SEQ ID NO:5 (Streptococcus mutans UA159)”: in data set [1], the Km came out at 0.33 mM and the Vmax amounted to 8.5 U/mg.

As to `OC[C@H]1O[C@@](CO)(O[C@H]2O[C@H](CO)[C@@H](O)[C@H](O)[C@H]2O)[C@@H](O)[C@@H]1O` [sucrose], in data set [2], the “Km(sucrose) of the S. mutans enzyme lower than that of the L. mesenteroides enzyme” value is recorded as “about 10 times lower” and the “Vmax of S. mutans sucrose phosphorylase lower than that of the enzyme from L. mesenteroides” value is given as “about 9 times lower”. Moreover, the Km in data set [3] is 1 to 25 mM. In addition, the “Km of GftA for sucrose relative to the endogenous enzymes” value in data set [4] is “lower Km”.

In the case of `O=P(O)(O)O` [Pi, inorganic phosphate], in data set [5], the Michaelis-Menten constant (Km) stood at 4.88 mM. Further, the “activity (% of optimal activity)” value in data set [6] was “about 80%”; in data set [7] it was 100%.

B1: Leuconostoc mesenteroides sucrose phosphorylase (Spl, L. mesenteroides SP), wild type, gene spl SEQ ID NO:6 (Leuconostoc mesenteroides) (protein)
chain: MEIQNKAMLITYADSLGKNLKDVHQVLKEDIGDAIGGVHLLPFFPSTGDRGFAPADYTRVDAAFGDWADVEALGEEYYLMFDFMINHISRESVMYQDFKKNHDDSKYKDFFIRWEKFWAKAGENRPTQADVDLIYKRKDKAPTQEITFDDGTTENLWNTFGEEQIDIDVNSAIAKEFIKTTLEDMVKHGANLIRLDAFAYAVKKVDTNDFFVEPEIWDTLNEVREILTPLKAEILPEIHEHYSIPKKINDHGYFTYDFALPMTTLYTLYSGKTNQLAKWLKMSPMKQFTTLDTHDGIGVVDARDILTDDEIDYASEQLYKVGANVKKTYSSASYNNLDIYQINSTYYSALGNDDAAYLLSRVFQVFAPGIPQIYYVGLLAGENDIALLESTKEGRNINRHYYTREEVKSEVKRPVVANLLKLLSWRNESPAFDLAGSITVDTPTDTTIVVTRQDENGQNKAVLTADAANKTFEIVENGQTVMSSDNLTQN
notes: fragment containing the spl gene, encoding the Leuconostoc mesenteroides sucrose phosphorylase enzyme; made in house; host or cells: E. coli BL21 (DE3)
Turning to B1, in data set [8], the Km is listed as 3.39 mM and the Vmax stood at 71.3 U/mg.
